Data from US20060013794A1, “Cosmetic or pharmaceutical composition comprising peptides with the sequences arggly-ser” (priority 2002, published 2006).
Where a SMILES comes first, the peptide text is derived from it.

Test system: HaCat human keratinocytes
Test: Cell differentiation, immunofluorescence with anti-ERG 1-2 antibodies
Assay type: cell-based
Conditions: at 24 hours

quantity of ERG molecules present in the cells (fluorescence intensity, cell differentiation marker): increases
SMILES: N=C(N)NCCC[C@H](N)C(=O)NCC(=O)N[C@@H](CO)C(=O)O [Arg-Gly-Ser] (H-Arg-Gly-Ser-OH)
